Where two headings read alike, the source gives them in different places.
Experiments:
[1] = test system: Escherichia coli expressing NDM-1 (CLB30016); test: Antibiotic potentiation activity: synergistic concentration (MITC95) with imipenem, OD600 growth; format: cell-based
In short: (§1)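 Imipenem (4 μg/ml final; 1 μg/ml as an option) was combined with compound against isolates diluted 1:100 from saline suspensions into 1.1× CAMHB. Growth was assessed by absorbance at 22–24 h, 35 °C.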

[2] = test system: Klebsiella pneumoniae expressing VIM-1 (IHMA599644); test: as above; format: cell-based
In short: as §1

[3] = test system: Serratia marcescens expressing IMP-1 (CL5741); test: as above; format: cell-based
In short: as §1

IMP-1 = IMP-1 (Serratia marcescens, UniProt P52699); test: biochemical; format: biochemical; conditions: read-out: IMP-1 IC50
VIM-1 = VIM-1 (Pseudomonas aeruginosa (strain ATCC 15692 / DSM 22644 / CIP 104116 / JCM 14847 / LMG 12228 / 1C / PRS 101 / PAO1), UniProt A0A0F7KYQ8); test: Enzyme activity: determination of IC50, fluorescence assay with CCF2-FA substrate (VIM-1); format: biochemical
NDM-1 = NDM-1 (Klebsiella pneumoniae, UniProt C7C422); test: biochemical; format: biochemical; conditions: read-out: NDM-1 IC50
[4] = Escherichia coli expressing NDM-1 (CLB30016), 95% growth inhibition
[5] = Klebsiella pneumoniae expressing VIM-1 (IHMA599644), 95% growth inhibition
[6] = Serratia marcescens expressing IMP-1 (CL5741), 95% growth inhibition
[7] = IMP-1 enzyme, CCF2-FA fluorescence assay
[8] = VIM-1 enzyme, CCF2-FA fluorescence assay, read-out: VIM-1 IC50
[9] = NDM-1 enzyme, CCF2-FA fluorescence assay
[10] = (CLB30016, NDM-1), 95% growth inhibition
[11] = Klebsiella pneumoniae IHMA599644 (VIM-1), 95% growth inhibition
[12] = Serratia marcescens CL5741 (IMP-1), 95% growth inhibition
[13] = IMP-1 enzyme, CCF2-FA substrate
[14] = VIM-1 IC50, VIM-1 enzyme, CCF2-FA substrate
[15] = NDM-1 enzyme, CCF2-FA substrate
[16] = VIM-1 enzyme, CCF2-FA substrate, read-out: VIM-1 IC50
[17] = CLB30016 (NDM-1), 95% inhibition of bacterial growth
[18] = IHMA599644 (VIM-1), 95% inhibition of bacterial growth
[19] = CL5741 (IMP-1), 95% inhibition of bacterial growth
[20] = fluorescence assay with CCF2-FA substrate
[21] = fluorescence assay with CCF2-FA substrate, read-out: VIM-1 IC50
[22] = concentration giving 95% inhibition of bacterial growth

IMP-1, sequence (P52699 whole entry, looked up): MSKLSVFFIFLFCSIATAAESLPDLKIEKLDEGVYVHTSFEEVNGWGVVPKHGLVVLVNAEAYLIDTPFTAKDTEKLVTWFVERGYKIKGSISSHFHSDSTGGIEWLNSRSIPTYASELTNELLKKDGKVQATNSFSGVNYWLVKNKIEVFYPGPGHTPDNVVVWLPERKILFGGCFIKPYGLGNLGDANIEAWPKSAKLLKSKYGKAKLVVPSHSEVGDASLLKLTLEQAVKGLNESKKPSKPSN
NDM-1, sequence (C7C422 whole entry, looked up, species assumed): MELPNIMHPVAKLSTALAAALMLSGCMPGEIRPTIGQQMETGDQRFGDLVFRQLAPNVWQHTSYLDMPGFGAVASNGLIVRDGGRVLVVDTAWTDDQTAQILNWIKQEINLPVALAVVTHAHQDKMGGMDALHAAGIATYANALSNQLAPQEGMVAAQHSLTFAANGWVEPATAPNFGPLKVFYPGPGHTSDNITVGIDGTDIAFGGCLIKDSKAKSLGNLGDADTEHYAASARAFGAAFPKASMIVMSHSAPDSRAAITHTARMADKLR

Compound	Escherichia coli MITC95 [1, 4]	Klebsiella pneumoniae MITC95 [2, 5]	Serratia marcescens MITC95 [3, 6]	IC50 (IMP-1; [7])	IC50 (VIM-1; [8])	IC50 (NDM-1; [9])	Escherichia coli MITC95 [1, 10]	Klebsiella pneumoniae MITC95 [2, 11]	Serratia marcescens MITC95 [3, 12]	IC50 (IMP-1; [13])	IC50 (NDM-1; [15])	IC50 (VIM-1; [16])	other results
NC1CCC(Cc2ccc(-c3ccnc4ccccc34)c(-c3nn[nH]n3)c2S(N)(=O)=O)CC1 (stereo not drawn) [Example 451, 6-(((1s,4s)-4-aminocyclohexyl)methyl)-3-(quinolin-4-yl)-2-(2H-tetrazol-5-yl)benzenesulfonamide]	1.563 µM	3.125 µM	3.125 µM	47.1 nM	0.476 nM	0.977 nM	–	–	–	–	–	–	–
NS(=O)(=O)c1c(C(F)(F)F)ccc(-c2cccc3c2CCCN3)c1-c1nnn[nH]1 [Example 518, 3-(1,2,3,4-Tetrahydroquinolin-5-yl)-2-(1H-tetrazol-5-yl)-6-(trifluoromethyl)benzenesulfonamide]	–	–	–	–	–	–	1.563 µM	6.25 µM	0.3906 µM	1.62 nM	0.775 nM	–	IC50 (VIM-1; [14]): 0.342 nM
CC(CC(=O)O)NCc1ccc(-c2cccc(S(N)(=O)=O)c2-c2nnn[nH]2)cc1 (stereo not drawn) [Example 344, 3-({[3′-sulfamoyl-2′-(1H-tetrazol-5-yl)biphenyl-4-yl]methyl}amino)butanoic acid]	2.344 µM	100 µM	4.688 µM	242 nM	585 nM	32.8 nM	–	–	–	–	–	–	–
CC(N[C@H]1CC[C@H](c2ccc(C(F)(F)F)c(S(N)(=O)=O)c2-c2nnn[nH]2)CC1)C1CCNCC1 (stereo partly drawn) [Example 683, 3-{4-[(1-piperidin-4-ylethyl)amino]cyclohexyl}-2-(1H-tetrazol-5-yl)-6-(trifluoromethyl)benzene sulfonamide]	–	–	–	–	–	–	3.125 µM	50 µM	12.5 µM	154 nM	31.5 nM	28.1 nM	–
NS(=O)(=O)c1c(C(F)(F)F)ccc(-c2ccc(CN3CCNCC3)cc2)c1-c1nnn[nH]1 [Example 718, 4′-(piperazin-1-ylmethyl)-2-(1H-tetrazol-5-yl)-4-(trifluoromethyl)biphenyl-3-sulfonamide]	–	–	–	–	–	–	12.5 µM	25 µM	6.25 µM	2.4 nM	1.51 nM	1.73 nM	–
C[N+]1(C)CC(c2ccc(-c3ccc(C(F)(F)F)c(S(N)(=O)=O)c3-c3nn[nH]n3)cc2)C1 [Example 435, 1,1-dimethyl-3-(3′-sulfamoyl-2′-(2H-tetrazol-5-yl)-4′-(trifluoromethyl)-[1,1′-biphenyl]-4-yl)azetidin-1-ium]	1.281 µM	3.125 µM	0.25 µM	11.1 nM	2.37 nM	12 nM	–	–	–	–	–	–	–
NS(=O)(=O)c1cccc(-c2snc3cccnc23)c1-c1nnn[nH]1 [Example 414, 3-isothiazolo[4,3-b]pyridin-3-yl-2-(1H-tetrazol-5-yl)benzenesulfonamide]	2.344 µM	18.75 µM	4.688 µM	177 nM	19.9 nM	6.01 nM	–	–	–	–	–	–	–
Cc1cnc(-c2cccc(S(N)(=O)=O)c2-c2nn[nH]n2)cn1 [Example 248, 3-(5-Methylpyrazin-2-yl)-2-(2H-tetrazol-5-yl)benzenesulfonamide]	0.1875 µM	12.5 µM	4.688 µM	134 nM	132 nM	4.49 nM	–	–	–	–	–	–	–
Nc1ccc2cc(-c3ccc(C(F)(F)F)c(S(N)(=O)=O)c3-c3nnn[nH]3)ccc2n1 [Example 745, 3-(2-aminoquinolin-6-yl)-2-(1H-tetrazol-5-yl)-6-(trifluoromethyl)benzenesulfon-amide]	–	–	–	–	–	–	–	–	–	–	–	–	Escherichia coli MITC95 [1, 17]: 0.7813 µM; Klebsiella pneumoniae MITC95 [2, 18]: 3.125 µM; Serratia marcescens MITC95 [3, 19]: 3.125 µM; IC50 (IMP-1; [20]): 1.5 nM; IC50 (VIM-1; [21]): 0.175 nM; IC50 (NDM-1; [20]): 1.05 nM
NC1CCC(N2CCC(c3ccc(-c4ccc(C(F)(F)F)c(S(N)(=O)=O)c4-c4nnn[nH]4)cc3)CC2)C1 (stereo not drawn) [Example 786, 4′-[1-(3-aminocyclopentyl)piperidin-4-yl]-2-(1H-tetrazol-5-y)-4-(trifluoromethyl)biphenyl-3-sulfonamide]	–	–	–	–	–	–	–	–	–	–	–	–	Escherichia coli MITC95 [1, 17]: 1.563 µM; Klebsiella pneumoniae MITC95 [2, 18]: 50 µM; Serratia marcescens MITC95 [3, 19]: 3.125 µM; IC50 (IMP-1; [20]): 2.08 nM; IC50 (VIM-1; [21]): 12 nM; IC50 (NDM-1; [20]): 6.2 nM
Cc1ccncc1-c1ccc(C(F)(F)F)c(S(N)(=O)=O)c1-c1nnn[nH]1 [Example 747, 3-(4-methylpyridin-3-yl)-2-(1H-tetrazol-5-yl)-6-(trifluoromethyl)benzenesulfon-amide]	–	–	–	–	–	–	–	–	–	–	–	–	Escherichia coli MITC95 [1, 17]: 6.25 µM; Klebsiella pneumoniae MITC95 [2, 18]: 12.5 µM; Serratia marcescens MITC95 [3, 19]: 25 µM; IC50 (IMP-1; [20]): 11.2 nM; IC50 (VIM-1; VIM-1 IC50, fluorescence assay with CCF2-FA substrate): 0.866 nM; IC50 (NDM-1; [20]): 5.72 nM
NS(=O)(=O)c1c(CC2CCNCC2)ccc(-c2ccc(C3CN(CCO)C3)cc2)c1-c1nn[nH]n1 [Example 608, 3-[4-[1-(2-hydroxyethyl)azetidin-3-yl]phenyl]-6-(4-piperidylmethyl)-2-(2H-tetrazol-5-yl)benzenesulfonamide]	–	–	–	–	–	–	6.25 µM	6.25 µM	6.25 µM	127 nM	30.4 nM	45 nM	–
NCCCN1CCC(c2ccc(-c3cccc(S(N)(=O)=O)c3-c3nnn[nH]3)cc2)CC1 [Example 613, 3-[4-[1-(3-aminopropyl)-4-piperidyl]phenyl]-2-(1H-tetrazol-5-yl)benzenesulfonamide]	–	–	–	–	–	–	0.25 µM	18.75 µM	0.543 µM	36.3 nM	14.1 nM	253 nM	–
Nc1cc(-c2ccc(C(F)(F)F)c(S(N)(=O)=O)c2-c2nnn[nH]2)cc(N)n1 [Example 714, 3-(2,6-diaminopyridin-4-yl)-2-(1H-tetrazol-5-yl)-6-(trifluoromethyl)benzenesulfon-amide]	–	–	–	–	–	–	1.563 µM	3.125 µM	12.5 µM	31.7 nM	5.05 nM	–	IC50 (VIM-1; [14]): 0.799 nM
Nc1nc2c(-c3ccc(CCC(=O)O)c(S(N)(=O)=O)c3-c3nn[nH]n3)cccc2s1 [Example 538, 3-(4-(2-Aminobenzo[d]thiazol-4-yl)-2-sulfamoyl-3-(2H-tetrazol-5-yl)phenyl)propanoic acid]	–	–	–	–	–	–	6.25 µM	100 µM	50 µM	53.8 nM	1.4 nM	40.3 nM	–
NS(=O)(=O)c1cccc(COc2ccccc2)c1-c1nnn[nH]1 [Example 142, 3-(phenoxymethyl)-2-(1H-tetrazol-5-yl)benzenesulfonamide]	–	–	–	–	–	–	–	–	–	–	–	–	Escherichia coli expressing NDM-1 (CLB 30016) MITC95 [1, 22]: 1.563 µM; Klebsiella pneumoniae expressing VIM-1 (IHMA 599644) MITC95 [2, 22]: >200 µM; Serratia marcescens expressing IMP-1 (CL5741) MITC95 [3, 22]: 6.25 µM; IC50 (IMP-1; [20]): 81 nM; IC50 (VIM-1; [21]): 419 nM; IC50 (NDM-1; [20]): 8.2 nM
